Article PMC9304322, “Targeting retinoic acid receptor alpha-corepressor interaction activates chaperone-mediated autophagy and protects against retinal degeneration” (Nature Communications, 2022)
Values joined by “and” are separate entries in the source; they are usually repeats but may differ in a detail not shown here. Equal entries are not always repeated.

Key:
lamp2a mRNA = lamp2a mRNA in hippocampus of treated KFERQ-Dendra mice; type: in vivo, mouse; details: for Fig. 3e value relative to Vehicle: single replicate values, one sample t test; for mRNA levels of lamp2a (Fig. 4d), individual mice / mRNA levels of lamp2a (Fig. 4d), mean: hippocampus, i.p. 30 mg/kg bw daily for three days, vehicle mean = 1.000; for mRNA levels of lamp2a (Fig. 4d), individual mice: 30 mg/kg; for mRNA levels of lamp2a (Fig. 4d), mean: n = 4 mice
Procedure: C57BL/6 J mice wild-type (WT) and homozygous for the Pde6 mutation (rd10 mouse model of retinal degeneration) were obtained from The Jackson Laboratory and experiments were performed at the age indicated in each part of the study. C57BL/6 KFERQ-Dendra mice were generated by back-crossing FVB KFERQ-Dendra mice with wild-type C57BL/6 mice for 8 generations. Both male and female animals were used in this study in equally distribution groups. However, results from both sexes were pooled, because of absence of significant differences in any of the parameters analyzed after statistical analysis with a mixed model of two-way ANOVA sex and treatment as independent variables and the corresponding measure as dependent variable. All animals were housed in a barrier-controlled facility (19–23 °C 30–60% relative humidity; 12 h light/dark cycle) with ad libitum access to standard chow pellets (protein 19 gm%/carbohydrate 67 gm%/fat 4 gm%) and water. For animal administration of CA compounds, a formula containing 30% PEG 400 (Sigma, #8.0745), 65% of 5% glucose solution, 5% Tween 80 (Sigma, #P1754) was used to dissolve them. CA compounds were prepared freshly by adding 5% DMSO and sonicating for 1 h. Treatment of KFERQ-Dendra mice with the CA compounds was done at 4 months of age by i.p. daily injection of 30 mg/kg bw or vehicle for three consecutive days and tissues collected 6 h after the last injection. In the case of rd10 mice, animals were daily injected from P18 to P25 with CA77 (40 mg/kg bw). In the case of intravitreal administration, a single intravitreal injection was applied at P18 with CA77 (40 µM) in DMSO/PBS and the contralateral eye was injected with PBS and DMSO at same concentration. At P26, mice were sacrificed and eyes fixed overnight with 4% PFA (Sigma, #P6148) in PBS at 4 °C for immunofluorescence or retinas dissected and immediately frozen for biochemistry. Distribution of animals in the vehicle or treatment group was done randomly. ICR (CD-1) outbred 3 months old male mice from ENVIGO were used for the pharmacokinetic studies (see pharmacokinetic section for housing and handling details). All animal studies and procedures complied with ethical regulations, were performed in accordance with the European Union guidelines and the ARVO Statement for the Use of Animals in Ophthalmic and Vision Research and were approved by the Institutional Animal Care and Use Committee at the Albert Einstein College of Medicine, the CSIC Bioetica Comite and approved by the Comunidad de Madrid, PROEX232/17.
RNA was extracted from individual retinas or tissue sections (brain, liver). Total RNA from retinas was extracted using TRIzol Reagent (Invitrogen, # 15596-018), and reverse transcription was performed using the High-Capacity cDNA Reverse Transcription Kit (Applied Biosystems, # 4374966) according to the manufacturer’s instructions. Quantitative real-time PCR was performed in a Light Cycler 480 Instrument (Roche) with Taqman LightCycler 480 probes Master Mix (Roche, #4887301001) using Taqman assays (Life Technologies). For cells in culture, RNA was extracted using RNeasy Plus Mini Kit (Qiagen, #74034), and reverse transcription was performed using Superscript III (Invitrogen, #18080051). Quantitative RT-PCR analysis were performed using Power SYBR Green PCR Master Mix (Applied Biosystems, #4368708) on a StepOne Plus Real-Time PCR System (Applied Biosystems). Mm01184405_m1 probe (Thermofisher) was used for rhodopsin and the sequence of all the other probes used for qPCR is included in Supplementary Table 2.

[1] = molecular target: T1, RARα and the N-CoR1 peptide (Homo sapiens, UniProt P10276); test: Fluorescence polarization binding assay, RARα LBD and FITC-N-CoR1 peptide; details: 10 μΜ compound
T1 construct: human RARα (residues 176-421); His6-SUMO (N, cleaved yes); made in house; host or cells: Escherichia coli BL21(DE3) RIL
Procedure: The ligand binding domain (LBD) of the human RARα (residues 176-421) was fused to a preceding His6-SUMO tag separated by a ubiquitin-like protease (ULP1) cleavage site and was expressed in Escherichia coli BL21(DE3) RIL cell strain. Cells were grown at 37 °C in LB medium supplemented with 50 µg/mL kanamycin until OD600 reached about 0.8. Expression of T7 polymerase was induced by addition of isopropyl-b-d-thiogalactoside (IPTG, #10724815001) to a final concentration of 0.8 mM and cells were incubated at 20 °C overnight. Cell cultures were harvested by centrifugation at 8,000 × g for 15 mins. The cell pellet from 1 liter of LB growth was resuspended in 50 mL lysis buffer (20 mM Tris-HCl pH 8, 500 mM NaCl, 25 mM imidazole) supplemented with one complete™, EDTA-free protease inhibitor tablet (Roche Applied Science, #11873580001). The suspension was lysed using a high pressure homogenizer and centrifuged at 35,000 × g at 4 °C for 45 minutes. […]
The fluorescein-tagged peptide of N-CoR1, FITC-Ahx-[…] […] Fluorescence polarization assays (FPA) were performed using established procedures. […] Fluorescence polarization was measured at 30 min on a F200 PRO microplate reader (TECAN) with the excitation wavelength set at 470 nm and emission measured at 530 nm. EC50 values were calculated by nonlinear regression analysis of competitive binding curves using GraphPad Prism software.

T1 sequence (P10276 176-421, other chains not shown): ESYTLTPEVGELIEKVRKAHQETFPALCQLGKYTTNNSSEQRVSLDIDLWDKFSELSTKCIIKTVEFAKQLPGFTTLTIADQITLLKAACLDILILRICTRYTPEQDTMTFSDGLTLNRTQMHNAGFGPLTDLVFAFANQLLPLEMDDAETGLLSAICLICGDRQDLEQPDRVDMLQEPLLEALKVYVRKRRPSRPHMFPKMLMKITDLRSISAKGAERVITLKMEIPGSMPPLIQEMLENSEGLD

SMILES | Fig. 3e value relative to Vehicle (lamp2a mRNA) | mRNA levels of lamp2a (Fig. 4d), individual mice (lamp2a mRNA) | mRNA levels of lamp2a (Fig. 4d), mean (lamp2a mRNA) | N-CoR1 peptide binding to RARα in fluorescence polarization assays [1]
Clc1ccc2c(c1)OCC(c1ccc(-c3ccccc3)cc1)=N2 [CA39] | 1.07 and 1.28 and 1.20 and 1.32 and 1.95 and 2.13 | 1.581 and 1.814 and 1.628 and 1.163 | 1.547 | enhanced N-CoR1 peptide binding to RARα
CC(=O)Nc1ccc(C2=Nc3ccc(Cl)cc3OC2)cc1 [CA77] | 2.04 and 2.28 and 1.87 and 1.53 and 2.54 and 2.31 | 1.395 and 1.349 and 1.27 and 1.907 | 1.480 | enhanced N-CoR1 peptide binding to RARα
